Numbered stars: 1 amine (or outer) side, 2 acyl side, 3 side chain; on linkers, the order of the positions; unused ones are H or OH. Bridge positions count the residues as written; N and C are the ends. Square brackets hold non-standard residues; d marks the D form. Peptide text beside a SMILES is read from it. * marks the point of attachment. Bip(4'-COOH) = N[C@@H](Cc1ccc(-c2ccc(C(=O)O)cc2)cc1)C(=O)O; Bip(4'-NHAc) = CC(=O)Nc1ccc(-c2ccc(C[C@H](N)C(=O)O)cc2)cc1; Phe(3-CH2NH2) = O=C([C@H](Cc1cccc(CN[*:3])c1)N[*:1])[*:2]; Phe(3-CF3) = N[C@@H](Cc1cccc(C(F)(F)F)c1)C(=O)O; Ala(morpholin-4-yl) = N[C@@H](CN1CCOCC1)C(=O)O; Phe(4-CONH2) = NC(=O)c1ccc(C[C@H](N)C(=O)O)cc1; Phe(4-COOH) = N[C@@H](Cc1ccc(C(=O)O)cc1)C(=O)O; Bip = N[C@@H](Cc1ccc(-c2ccccc2)cc1)C(=O)O; Phe(3-Me) = Cc1cccc(C[C@H](N)C(=O)O)c1; Abu(3S-NH2) = C[C@H](N)[C@H](N)C(=O)O; hPhe = N[C@@H](CCc1ccccc1)C(=O)O; 2Pal = N[C@@H](Cc1ccccn1)C(=O)O; Cha = N[C@@H](CC1CCCCC1)C(=O)O; Agb = N=C(N)NCC[C@H](N)C(=O)O; Carboxymethyl = O=C(O)C*; NMeA = CN[C@@H](C)C(=O)O; Orn = NCCC[C@H](N)C(=O)O; Dab = NCC[C@H](N)C(=O)O

The first test deals with T1, Alexa fluor-647 labeled human PD-L1-Ig binding to Jurkat cell line over-expressing human PD-1 (Homo sapiens, UniProt Q15116).
T1 construct: expressed in transfected cells; host or cells: Jurkat
T1 sequence (Q15116 25-288): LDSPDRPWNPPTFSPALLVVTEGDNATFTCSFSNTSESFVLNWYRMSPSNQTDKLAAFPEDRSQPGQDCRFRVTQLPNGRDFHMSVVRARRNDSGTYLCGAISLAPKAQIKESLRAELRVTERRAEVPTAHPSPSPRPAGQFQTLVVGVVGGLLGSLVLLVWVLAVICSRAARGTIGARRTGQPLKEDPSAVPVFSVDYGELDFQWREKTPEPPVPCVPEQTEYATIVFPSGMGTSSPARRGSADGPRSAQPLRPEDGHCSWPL
Description: Jurkat-PD-1 Cell Binding High-Content Screening Assay (CBA): Method 3 (Alexa fluor-647 labeled PD-L1-Ig). The following applies: Jurkat-PD-1 cells, Alexa fluor-647 labeled PD-L1-Ig 177 nM; head μM; read-out: CBA Method 3 μM. Summed up:
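Readout by high-content imaging of PFA-fixed, Hoechst-stained cells after 1 h with 177 nM (final) Alexa fluor-647 PD-L1-Ig. Compound was added first to hPD-1 Jurkat cells in RPMI plus 10% FCS for 2 h at 37 °C.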
Regarding `Cc1cccc(C[C@@H]2NC(=O)[C@H](CC(=O)O)NC(=O)[C@H](Cc3ccc(OCC(=O)O)cc3)NC(=O)[C@H](CC3CCCCC3)NC(=O)CSC[C@@H](C(=O)N[C@@H](CCN)C(N)=O)NC(=O)[C@H](CCCN)NC(=O)[C@H](C(C)C)NC(=O)[C@H](Cc3ccccn3)NC(=O)[C@H](CCN)NC(=O)[C@@H](CC(C)C)NC(=O)[C@H](C)N(C)C(=O)[C@H](CCC(N)=O)NC(=O)[C@H](Cc3ccc(-c4ccccc4)cc3)NC(=O)[C@H](Cc3ccc(C(=O)O)cc3)NC2=O)c1` [Example 5194] ({CH2CO}-[Cha]Y(Carboxymethyl)D[Phe(3-Me)][Phe(4-COOH)][Bip]Q[NMeA][dL][Dab][2Pal]V[Orn]C[Dab]-NH2; thioether N-14), the IC50 stood at 0.04 µM.

As for `Cc1cccc(C[C@@H]2NC(=O)[C@H](CC(=O)O)NC(=O)[C@H](Cc3ccc(OCC(=O)O)cc3)NC(=O)[C@H](Cc3cccc(CN)c3)NC(=O)CSC[C@@H](C(=O)N[C@@H](CCN)C(N)=O)NC(=O)[C@H](CCCN)NC(=O)[C@H](C(C)C)NC(=O)[C@H](CC3CCCCC3)NC(=O)[C@H](CCN)NC(=O)[C@@H](CC(C)C)NC(=O)[C@H](C)N(C)C(=O)[C@H](CCC(N)=O)NC(=O)[C@H](Cc3ccc(-c4ccccc4)cc3)NC(=O)[C@H](Cc3ccc(C(=O)O)cc3)NC2=O)c1` [Example 5176] ({CH2CO}-[Phe(3-CH2NH2)]Y(Carboxymethyl)D[Phe(3-Me)][Phe(4-COOH)][Bip]Q[NMeA][dL][Dab][Cha]V[Orn]C[Dab]-NH2; thioether N-14), the IC50 was 0.01 µM. For `Cc1cccc(C[C@@H]2NC(=O)[C@H](CC(=O)O)NC(=O)[C@H](Cc3ccc(OCC(=O)O)cc3)NC(=O)[C@H](CCNC(=N)N)NC(=O)CSC[C@@H](C(=O)N[C@@H](CCN)C(N)=O)NC(=O)[C@H](CCCN)NC(=O)[C@H](C(C)C)NC(=O)[C@H](CC3CCCCC3)NC(=O)[C@H](CCN)NC(=O)[C@@H](CC(C)C)NC(=O)[C@H](C)N(C)C(=O)[C@H](CCC(N)=O)NC(=O)[C@H](Cc3ccc(-c4ccccc4)cc3)NC(=O)[C@H](Cc3ccc(C(=O)O)cc3)NC2=O)c1` [Example 5182] ({CH2CO}-[Agb]Y(Carboxymethyl)D[Phe(3-Me)][Phe(4-COOH)][Bip]Q[NMeA][dL][Dab][Cha]V[Orn]C[Dab]-NH2; thioether N-14), the IC50 is 0.01 µM.

Turning to `COc1ccc(C[C@@H]2NC(=O)[C@H](CN3CCOCC3)NC(=O)CSC[C@@H](C(=O)N[C@@H](CCN)C(N)=O)NC(=O)[C@H](CCCN)NC(=O)[C@H](C(C)C)NC(=O)[C@H](CC3CCCCC3)NC(=O)[C@H](CCN)NC(=O)[C@@H](CC(C)C)NC(=O)[C@H](C)N(C)C(=O)[C@H](CCC(N)=O)NC(=O)[C@H](Cc3ccc(-c4ccccc4)cc3)NC(=O)[C@H](Cc3ccc(OCC(=O)O)cc3)NC(=O)[C@H](Cc3cccc(C(F)(F)F)c3)NC(=O)[C@H](CC(=O)O)NC2=O)cc1` [Example 5263] ({CH2CO}-[Ala(morpholin-4-yl)]Y(Me)D[Phe(3-CF3)]Y(Carboxymethyl)[Bip]Q[NMeA][dL][Dab][Cha]V[Orn]C[Dab]-NH2; thioether N-14), the IC50 amounted to 0.18 µM. On the same count and under the same terms, in the case of `Cc1cccc(C[C@@H]2NC(=O)[C@H](CC(=O)O)NC(=O)[C@H](Cc3ccc(OCC(=O)O)cc3)NC(=O)[C@H](CC3CCCCC3)NC(=O)CSC[C@@H](C(=O)N[C@@H](CCN)C(N)=O)NC(=O)[C@H](CCCN)NC(=O)[C@H](C(C)C)NC(=O)[C@H](CCN)NC(=O)[C@H](CCN)NC(=O)[C@@H](CC(C)C)NC(=O)[C@H](C)N(C)C(=O)[C@H](CCC(N)=O)NC(=O)[C@H](Cc3ccc(-c4ccccc4)cc3)NC(=O)[C@H](Cc3ccc(C(=O)O)cc3)NC2=O)c1` [Example 5205] ({CH2CO}-[Cha]Y(Carboxymethyl)D[Phe(3-Me)][Phe(4-COOH)][Bip]Q[NMeA][dL][Dab][Dab]V[Orn]C[Dab]-NH2; thioether N-14) it was 0.16 µM.

Staying with this test, now noted: Jurkat-PD-1 cells, Alexa fluor-647 labeled PD-L1-Ig 177 nM; nM; read-out: CBA Method 3.
In the case of `CC(C)C[C@H]1NC(=O)[C@H](C)N(C)C(=O)[C@H](CCC(N)=O)NC(=O)[C@H](Cc2ccc(-c3ccccc3)cc2)NC(=O)[C@H](CCc2ccccc2)NC(=O)[C@H](Cc2cccc(C(F)(F)F)c2)NC(=O)[C@H](CC(=O)O)NC(=O)[C@H](Cc2ccc(O)cc2)NC(=O)[C@H](CN2CCOCC2)NC(=O)CSC[C@@H](C(=O)N[C@@H](CCN)C(N)=O)NC(=O)[C@H](CCC(N)=O)NC(=O)[C@H](C(C)C)NC(=O)[C@H](CC2CCCCC2)NC(=O)[C@H](CCN)NC1=O` [Example 5240] ({CH2CO}-[Ala(morpholin-4-yl)]YD[Phe(3-CF3)][hPhe][Bip]Q[NMeA][dL][Dab][Cha]VQC[Dab]-NH2; thioether N-14), the IC50 is 0.0044 µM. Regarding `CC(=O)Nc1ccc(-c2ccc(C[C@@H]3NC(=O)[C@H](Cc4cccc(C(F)(F)F)c4)NC(=O)[C@H](CC(=O)O)NC(=O)[C@H](Cc4ccc(C(=O)O)cc4)NC(=O)[C@H]([C@H](C)N)NC(=O)CSC[C@@H](C(=O)N[C@@H](CCN)C(N)=O)NC(=O)[C@H](CC(N)=O)NC(=O)[C@H](C(C)C)NC(=O)[C@H](CC4CCCCC4)NC(=O)[C@H](CCN)NC(=O)[C@@H](CC(C)C)NC(=O)[C@H](C)N(C)C(=O)[C@H](Cc4ccc(C(N)=O)cc4)NC(=O)[C@H](Cc4ccc(-c5ccccc5)cc4)NC3=O)cc2)cc1` [Example 5109] ({CH2CO}-[Abu(3S-NH2)][Phe(4-COOH)]D[Phe(3-CF3)][Bip(4'-NHAc)][Bip][Phe(4-CONH2)][NMeA][dL][Dab][Cha]VNC[Dab]-NH2; thioether N-14), the IC50 came to 0.0044 µM.

As to `Cc1cccc(C[C@@H]2NC(=O)[C@H](CC(=O)O)NC(=O)[C@H](Cc3ccc(OCC(=O)O)cc3)NC(=O)[C@H](CC(N)=O)NC(=O)CSC[C@@H](C(=O)N[C@@H](CCN)C(N)=O)NC(=O)[C@H](CCCN)NC(=O)[C@H](C(C)C)NC(=O)[C@H](CC3CCCCC3)NC(=O)[C@H](CCN)NC(=O)[C@@H](CC(C)C)NC(=O)[C@H](C)N(C)C(=O)[C@H](CCC(N)=O)NC(=O)[C@H](Cc3ccc(-c4ccccc4)cc3)NC(=O)[C@H](Cc3ccc(C(=O)O)cc3)NC2=O)c1` [Example 5187] ({CH2CO}-NY(Carboxymethyl)D[Phe(3-Me)][Phe(4-COOH)][Bip]Q[NMeA][dL][Dab][Cha]V[Orn]C[Dab]-NH2; thioether N-14), the IC50 stood at 0.008 µM. On the same count and under the same terms, the value for `CC(=O)Nc1ccc(-c2ccc(C[C@@H]3NC(=O)[C@H](Cc4cccc(C)c4)NC(=O)[C@H](CC(=O)O)NC(=O)[C@H](Cc4ccc(-c5ccc(C(=O)O)cc5)cc4)NC(=O)[C@H](CN4CCOCC4)NC(=O)CSC[C@@H](C(=O)N[C@@H](CCN)C(N)=O)NC(=O)[C@H](CCC(=O)O)NC(=O)[C@H](C(C)C)NC(=O)[C@H](CC4CCCCC4)NC(=O)[C@H](Cc4cnc[nH]4)NC(=O)[C@@H](CC(C)C)NC(=O)[C@H](C)N(C)C(=O)[C@H](Cc4ccc(C(=O)O)cc4)NC(=O)[C@H](Cc4ccc(-c5ccccc5)cc4)NC3=O)cc2)cc1` [Example 5253] ({CH2CO}-[Ala(morpholin-4-yl)][Bip(4'-COOH)]D[Phe(3-Me)][Bip(4'-NHAc)][Bip][Phe(4-COOH)][NMeA][dL]H[Cha]VEC[Dab]-NH2; thioether N-14) was 0.0028 µM.
